Assay results taken from patent US5461176A, “Processes for preparing bis-naphthalimides containing amino-acid derived linkers” (The Du Pont Merck Pharmaceutical Company, priority 1994, dated 1995).
≈ marks a conversion by molar mass, not a printed value. Where two headings read alike, the source gives them in different places.

Legend:
[1] = test system: murine leukemia L1210 cells; assay: In vitro growth inhibition of L1210 cells (MTT); assay type: cell-based; conditions: Mus musculus
Method: L1210 cells were maintained in RPMI-1640 a medium supplemented with 10% heat inactivated fetal bovine serum and […] (RPMI-L). B16 cells were maintained in RPMI-1640 medium supplemented with 15% heat inactivated fetal bovine serum and antiobiotics (RPMI-C).
Exponentially growing murine leukemia L1210 cells (1×10^3 cells) in 0.1 mL medium were seeded on day 0 in a 96-well microtiter plate. On day 1, […] aliquot of medium containing graded concentrations of test analogs was added to the initial volume. After incubation at 37° C. in a humidified incubator for 3 days, the plates were centrifuged briefly and […] of the growth medium was removed. Cell cultures were incubated with 50 μL of 3-(4,5-dimethylthiazol-2-yl)-2,5-diphenyltetrazolium bromide (MTT; 1 mg/ml in Dulbecco's phosphate buffer saline) for 4 hours at 37° C. The resulting purple formazan precipitate was solubilized with 200 μL of 0.04N HCl in isopropyl alcohol. Absorbance was read in a Titertek Multiskan MCC scaning well spectrophotometer (Flow Laboratories) at a test wavelength of 570 nm and a reference wavelength of 630 nm.
The ID50 values were determined by a computer program that fit all of the data (8 determinations per concentration and 12 concentrations per test analog) to the following equation:
Y=((Am-Ao)/(1+(X/ID50)n))+Ao
where: Am=absorbance of the control cells; Ao=absorbance of the cells in the presence of highest drug concentration; Y=observed absorbance; X=drug concentration; ID50 =dose of drug that inhibits the growth of cells to one half that of the control cells.

DLD-2 human colon tumor = assay: In vivo human tumor xenograft model, DLD-2 human colon tumor in nude mice; conditions: i.v. once daily for nine consecutive days, tumor growth inhibition, NCI criteria
Excerpt: (§1) The DLD-2 human colon tumor, MX-1 human mammary carcinoma, and LX-1 human lung tumor were originally obtained from a surgically removed primary colon carcinoma, breast tumor, and non-small lung carcinoma, respectively. The human tumor lines were maintained by serial passage in athymic nude mice. The MX-1 human mammary carcinoma and LX-1 human lung tumor are established tumors used by the NCI. The DLD-2, MX-1, and LX-1 tumor models have been well characterized.
(§2) The mice used in these experiments were outbred Swiss mice or BALB/c mice bearing the nude (nu/nu) gene. On day 0 male and female mice weighing 22-30 g are inoculated with 0.2 mL of a 25% tumor mince. This mince is prepared by mincing fresh tumor tissue, grown subcutaneously in passage mice, in sterile physiological saline. Palpable tumors weighing approximately 50 mg appear in the mice within 7-10 days after inoculation. The mice are pair matched by tumor weight and sex into groups of ten each and the test compounds and vehicle control are administered intravenously (i.v.) once daily for nine consecutive days. A >20% decrease in body weight on day 5 following compound administration is considered an indication of toxicity. Tumor measurements and body weights are recorded once a week. Fifteen to 18 days after the initial injection the mice are weighed, sacrificed and the tumors excised and weighed.
(§3) The efficacy of the test compounds is determined by the extent of tumor growth inhibition in treated versus vehicle-treated control mice. Initial tumor weights (mg) are calculated from the tumor dimensions (mm) measured from caliper measurements, using the formula for a prolate ellipsoid (mg of tumor weight=(length×width^2)/2). Net tumor weights are calculated for each of the treated groups and the vehicle-treated control group by subtracting the initial tumor weight from the final tumor weight on day 15. Results are expressed as a percentage decrease relative to the mean tumor weight for the control vehicle-treated group. [formula]
(§4) The criteria of the National Cancer Institute (NCI) for activity in the in vivo cancer models were used. Tumor growth inhibition of 58-89% in the DLD-2 assay is considered moderate activity and inhibition of ≥90% is condidered good to excellent activity.

[2] = test system: MX-1 human mammary carcinoma; assay: In vivo human tumor xenograft model, MX-1 human mammary carcinoma in nude mice; conditions: i.v. once daily for nine consecutive days, NCI criteria
Excerpt: as §1, §2, §3, §4

LX-1 human lung tumor = assay: In vivo human tumor xenograft model, LX-1 human lung tumor in nude mice; conditions: i.v. once daily for nine consecutive days, NCI criteria
Excerpt: as §1, §2, §3, §4

CC(CNCCNCC(C)N1C(=O)c2cccc3cc([N+](=O)[O-])cc(c23)C1=O)N1C(=O)c2cccc3cc([N+](=O)[O-])cc(c23)C1=O (racemic) [Example 2, (Racemate+meso)-2,2'-[1,2-ethanediylbis[imino(1-methyl-2,1-ethanediyl)]]-bis[5-nitro-1H-benz[de]isoquinoline-1,3(2H) -dione]methanesulfonate (1:2)]
IC50 ([1]; L1210, 72 h, read-out: ID50): 0.062 µg/mL (≈ 0.0993 µM) | activity against DLD-2 human colon tumors (DLD-2 human colon tumor): excellent to outstanding activity | activity in the MX-1 human breast tumor model [2]: excellent to outstanding activity | activity against LX-1 human lung tumors (LX-1 human lung tumor): good to excellent activity (inhibition of ≥90% is condidered good to excellent activity)

CC(CN1C(=O)c2cccc3cc([N+](=O)[O-])cc(c23)C1=O)NCCNC(C)CN1C(=O)c2cccc3cc([N+](=O)[O-])cc(c23)C1=O (racemic) [Example 30]
IC50 ([1]; L1210, 72 h, read-out: ID50): < 0.01 µg/mL | activity against DLD-2 human colon tumors (DLD-2 human colon tumor): excellent to outstanding activity | activity in the MX-1 human breast tumor model [2]: excellent to outstanding activity

C[C@@H](CN1C(=O)c2cccc3cc([N+](=O)[O-])cc(c23)C1=O)NCCN[C@@H](C)CN1C(=O)c2cccc3cc([N+](=O)[O-])cc(c23)C1=O (relative stereo) [Example 42]
IC50 ([1]; L1210, 72 h, read-out: ID50): < 0.001 µg/mL

C[C@@H](CNCCNC[C@H](C)N1C(=O)c2cccc3cc([N+](=O)[O-])cc(c23)C1=O)N1C(=O)c2cccc3cc([N+](=O)[O-])cc(c23)C1=O [Example 1, (S,S)-2,2'-[1,2-ethanediylbis[imino(1-methyl-2,1-ethanediyl)]]-bis[5-nitro-1H-benz[de]isoquinoline-1,3(2H)-dione]methanesulfonate (1:2)]
IC50 ([1]; L1210, 72 h, read-out: ID50): 0.047 µg/mL (≈ 0.0752 µM) | activity against DLD-2 human colon tumors (DLD-2 human colon tumor): excellent to outstanding activity | activity in the MX-1 human breast tumor model [2]: good to excellent activity (inhibition of ≥90% is condidered good to excellent activity)

C[C@H](CNCCNC[C@@H](C)N1C(=O)c2cccc3cc([N+](=O)[O-])cc(c23)C1=O)N1C(=O)c2cccc3cc([N+](=O)[O-])cc(c23)C1=O [Example 3, (R,R)-2,2'-[1,2-ethanediylbis[imino(1-methyl-2,1-ethanediyl)]]-bis[5-nitro-1H-benz[de]isoquinoline-1,3(2H)-dione]methanesulfonate (1:2)]
IC50 ([1]; L1210, 72 h, read-out: ID50): 0.051 µg/mL (≈ 0.0817 µM) | activity against DLD-2 human colon tumors (DLD-2 human colon tumor): excellent to outstanding activity | activity in the MX-1 human breast tumor model [2]: excellent to outstanding activity | activity against LX-1 human lung tumors (LX-1 human lung tumor): good to excellent activity (inhibition of ≥90% is condidered good to excellent activity)

C[C@H](CNCCNC[C@H](C)N1C(=O)c2cccc3cc([N+](=O)[O-])cc(c23)C1=O)N1C(=O)c2cccc3cc([N+](=O)[O-])cc(c23)C1=O [Example 26, (Meso)-2,2'-[1,2-ethanediylbis[imino(1-methyl-2,1-ethanediyl)]]-bis[5-nitro-1H-benz[de]isoquinoline-1,3(2H)-dione]methanesulfonate (1:2)]
IC50 ([1]; L1210, 72 h, read-out: ID50): 0.074 µg/mL (≈ 0.118 µM) | activity against DLD-2 human colon tumors (DLD-2 human colon tumor): excellent to outstanding activity

C[C@@H](CN1C(=O)c2cccc3cc([N+](=O)[O-])cc(c23)C1=O)NCCN[C@@H](C)CN1C(=O)c2cccc3cc([N+](=O)[O-])cc(c23)C1=O [Example 27, (S,S)-2,2'-[1,2-ethanediylbis[imino(2-methyl-2,1-ethanediyl)]]-bis[5-nitro-1H-benz[de]isoquinoline-1,3(2H)-dione]methanesulfonate (1:2)]
IC50 ([1]; L1210, 72 h, read-out: ID50): 0.0025 µg/mL (≈ 0.004 µM) | activity against DLD-2 human colon tumors (DLD-2 human colon tumor): excellent to outstanding activity | activity in the MX-1 human breast tumor model [2]: excellent to outstanding activity | activity against LX-1 human lung tumors (LX-1 human lung tumor): good to excellent activity (inhibition of ≥90% is condidered good to excellent activity)

C[C@@H](CN1C(=O)c2cccc3cccc(c23)C1=O)NCCN[C@@H](C)CN1C(=O)c2cccc3cccc(c23)C1=O [Example 28, (S,S)-2,2'-[1,2-ethanediylbis[imino(2-methyl-2,1-ethanediyl)]]-bis[^1 H-benz[de]isoquinoline-1,3(2H)-dione]methanesulfonate (1:2)]
IC50 ([1]; 72 h, murine leukemia L1210 cells, 3 days incubation, MTT, read-out: ID50 (the source's name)): 0.21 µg/mL (≈ 0.393 µM)

CS(=O)(=O)O.CS(=O)(=O)O.C[C@H](CN1C(=O)c2cccc3cc([N+](=O)[O-])cc(c23)C1=O)NCCN[C@H](C)CN1C(=O)c2cccc3cc([N+](=O)[O-])cc(c23)C1=O [Example 29, (R,R)-2,2'-[1,2-ethanediylbis[imino(2-methyl)-2,1-ethanediyl)]-bis[5-nitro-1H-benz[de]isoquinoline-1,3(2H)-dione]-methanesulfonate (1:2)]
IC50 ([1]; L1210, 72 h, read-out: ID50): < 0.01 µg/mL | activity against DLD-2 human colon tumors (DLD-2 human colon tumor): good to excellent activity (inhibition of ≥90% is condidered good to excellent activity) | activity in the MX-1 human breast tumor model [2]: excellent to outstanding activity | activity against LX-1 human lung tumors (LX-1 human lung tumor): good to excellent activity (inhibition of ≥90% is condidered good to excellent activity)

C[C@H](CN1C(=O)c2cccc3c([N+](=O)[O-])ccc(c23)C1=O)NCCN[C@H](C)CN1C(=O)c2cccc3c([N+](=O)[O-])ccc(c23)C1=O [Example 31]
IC50 ([1]; L1210, 72 h, read-out: ID50): 0.19 µg/mL (≈ 0.304 µM)

C[C@H](CN1C(=O)c2cc([N+](=O)[O-])cc3cc([N+](=O)[O-])cc(c23)C1=O)NCCN[C@H](C)CN1C(=O)c2cc([N+](=O)[O-])cc3cc([N+](=O)[O-])cc(c23)C1=O [Example 32]
IC50 ([1]; L1210, 72 h, read-out: ID50): 0.057 µg/mL (≈ 0.0798 µM)

C[C@@H](CN[C@@H](C)CN1C(=O)c2cccc3cc([N+](=O)[O-])cc(c23)C1=O)NC[C@H](C)N1C(=O)c2cccc3cc([N+](=O)[O-])cc(c23)C1=O [Example 43]
IC50 ([1]; L1210, 72 h, read-out: ID50): 0.04 µg/mL (≈ 0.0626 µM)
